Assay results taken from patent US20250011687A1, “BIODEGRADABLE CHELATING AGENTS AND METHODS FOR FABRIC CARE” (The Procter & Gamble Company, priority 2023, published 2025).

Key:
[1] = Example 3 stain removal in tergotometer wash, synthetic fabric; details: polyester, vs HEDP
Excerpt: Image analysis may be used to compare each stain to an unstained fabric control. Software may be used to convert images taken into standard colorimetric values and to compare these to standards based on the commonly used Macbeth Color Rendition Chart, assigning each stain a colorimetric value (Stain Level). The CIELAB color space, also referred to as L*a*b*, is a color space defined by the International Commission on Illumination (abbreviated CIE) in 1976.[a] It expresses color as three values: L* for perceptual lightness and a* and b* for the four unique colors of human vision: red, green, blue and yellow. The lightness value, L* defines black at 0 and white at 100. The a* axis is relative to the green-magenta opponent colors, with negative values toward green and positive values toward magenta. The b* axis represents the blue-yellow opponents, with negative numbers toward blue and positive toward yellow. In the following examples, various fabrics were analyzed using commercially available image analysis software for L*a*b* values. SRI values were then calculated from the L*a*b* values using the formula shown. The higher the SRI, the better the stain removal. […]

[2] = iron binding efficiency, logK(β110); assay type: physicochemical; details: one metal, one ligand, no protons
Excerpt: (§1) The binding efficiencies may be expressed as a binding constant. A binding constant (also called formation constant or stability constant) is an equilibrium constant for the formation of a complex in solution. It is a measure of the strength of the interaction between the reagents that come together to form the complex. As an example, various stains may comprise catechins as shown in Formula 13.
(§2) The chelating agent(s) according to various embodiments may, therefore, be selected to ensure a lower binding efficiency with calcium and a higher binding efficiency with iron at the wash pH.
(§3) In Table 1, the reaction between metals and ligands is described in terms of logK(β110). In this context, K, is the equilibrium constant for the reaction between ligands and metals. The higher K, the more metal is bound. This is illustrated in the following example.
(§4) β, represents the binding efficiency and receives some subscripts (βmlh) to indicate how many metals (m), ligands (l), and protons (h) respectively are involved.

[3] = calcium binding efficiency, logK(β110); assay type: physicochemical; details: one metal, one ligand, no protons
Excerpt: as §1, §2, §3, §4

[4] = Example 1 stain removal in tergotometer wash, unit dose compositions at pH 7.0/8.5/10.0; details: treatments with pH<10.0; tropolone compared to HEDP or no chelating agent
Excerpt: Image analysis may be used to compare each stain to an unstained fabric control. Software may be used to convert images taken into standard colorimetric values and to compare these to standards based on the commonly used Macbeth Color Rendition Chart, assigning each stain a colorimetric value (Stain Level). The CIELAB color space, also referred to as L*a*b*, is a color space defined by the International Commission on Illumination (abbreviated CIE) in 1976.[a] It expresses color as three values: L* for perceptual lightness and a* and b* for the four unique colors of human vision: red, green, blue and yellow. The lightness value, L* defines black at 0 and white at 100. The a* axis is relative to the green-magenta opponent colors, with negative values toward green and positive values toward magenta. The b* axis represents the blue-yellow opponents, with negative numbers toward blue and positive toward yellow. In the following examples, various fabrics were analyzed using commercially available image analysis software for L*a*b* values. SRI values were then calculated from the L*a*b* values using the formula shown. The higher the SRI, the better the stain removal. […] One dose of detergent treatment, as detailed in Table 3 below, was added to a tergotometer and was evaluated using the Washing Method.

[5] = pKa of chelating agents and catechin (Table 1); assay type: physicochemical
Excerpt: Chelation is a type of bonding of ions and molecules to metal ions. It involves the formation or presence of two or more separate coordinate bonds between a ligand and a metal atom. Without being bound by theory, the stain removal effectiveness of a composition comprising one or more chelating agents may depend at least in part on the ability of the chelating agent(s) to bind to iron, which may be present in some stains, such as fruit or beverage stains. Several factors may impact a chelating agent's ability to bind to iron. These factors may include the pKa of the chelating agent compared to the wash pH, and the affinity of the chelating agent to bind with other metals, materials, or compositions in the wash.
Various embodiments may provide or employ a composition that comprises one or more chelating agents having a pKa that is less than the wash pH.

Fe (III) logK(β110) [2] | Ca^2+ logK(β110) [3] | Fe (III) logK(β110) ([2]; listed as catechins) | Ca^2+ logK(β110) ([3]; listed as catechins) | pKa ([5]; fourth listed pKa) | pKa ([5]; second listed pKa) | pKa ([5]; third listed pKa) | SMILES | stain removal on synthetics fabric (in words) [1] | stain removal performance (in words) [4] | pKa ([5]; first listed pKa)
10.5 | 3.1 |  |  |  |  |  | O=c1cccccc1O [Tropolone, 2-Hydroxycyclohepta-2,4,6-trien-1-one] | significantly improved stain removal | improved stain removal performance | 
19.2 | 3.5 | about 19.2 | about 3.5 | 13.4 | 9.5 | 11.2 | Oc1cc(O)c2c(c1)OC(c1ccc(O)c(O)c1)C(O)C2 (stereo not shown) [Catechin] |  |  | 
14.1 | 6.8 |  |  | 10.3 | 2.5 | 7.3 | CC(O)(P(=O)(O)O)P(=O)(O)O [HEDP, 1-Hydroxyethylidene-1,1-diphosphonic acid] |  |  | 1.7

SMILES | Fe (III) logK(β110) [2] | Ca^2+ logK(β110) [3] | Fe (III) logK(β110) ([2]; listed as catechins) | Ca^2+ logK(β110) ([3]; listed as catechins) | pKa ([5]; fourth listed pKa) | pKa ([5]; second listed pKa) | pKa ([5]; third listed pKa) | stain removal on synthetics fabric (in words) [1] | stain removal performance (in words) [4] | pKa ([5]; first listed pKa)
CC(C)c1cccc(=O)c(O)c1 [Hinokitiol, 2-Hydroxy-6-(propan-2-yl)cyclohepta-2,4,6-trien-1-one] | 12.9 | 2.2 |  |  |  |  |  | significantly improved stain removal | improved stain removal performance | about 7
